# Experimental data reported in patent US20140023611A1 (priority 2010, published 2014).
# Several values for one entry are separate records, joined by “and”; a condition that tells them apart may be missing. Identical values can stand only once. Counter-ions that a name gives are not always drawn.
# What was measured:
# [1] = biological target: T1, rat NaP2b (SLC34A2) (Rattus norvegicus, UniProt Q9JJ09); assay: Inhibition of NaP2b-mediated Pi (33P) uptake in transfected HEK293 cells, rat NaP2b; format: cell-based; conditions: 33P Pi uptake, 0.1 mM phosphate, value given as pIC50 range
# T1 construct: host or cells: HEK293
# T1 sequence (Q9JJ09 1-695): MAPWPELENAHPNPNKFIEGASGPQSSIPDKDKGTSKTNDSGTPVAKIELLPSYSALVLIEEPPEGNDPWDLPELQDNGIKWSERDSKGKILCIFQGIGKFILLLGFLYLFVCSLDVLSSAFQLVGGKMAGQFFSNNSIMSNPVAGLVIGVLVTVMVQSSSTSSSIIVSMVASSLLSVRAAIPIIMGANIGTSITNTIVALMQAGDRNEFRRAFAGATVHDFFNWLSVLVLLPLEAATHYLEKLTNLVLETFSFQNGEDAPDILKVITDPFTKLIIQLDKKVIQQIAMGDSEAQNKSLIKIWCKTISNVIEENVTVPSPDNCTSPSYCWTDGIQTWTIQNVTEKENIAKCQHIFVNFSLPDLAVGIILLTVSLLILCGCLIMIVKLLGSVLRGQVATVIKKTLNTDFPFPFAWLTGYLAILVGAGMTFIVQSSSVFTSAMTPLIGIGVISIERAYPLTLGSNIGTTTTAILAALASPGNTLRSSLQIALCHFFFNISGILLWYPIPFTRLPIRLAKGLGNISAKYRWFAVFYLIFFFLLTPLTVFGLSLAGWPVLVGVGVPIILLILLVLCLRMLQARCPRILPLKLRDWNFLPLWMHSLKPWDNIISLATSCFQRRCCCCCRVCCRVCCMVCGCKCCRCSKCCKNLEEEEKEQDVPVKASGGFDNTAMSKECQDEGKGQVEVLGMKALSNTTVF
# Outline: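 HEK293 cells were transiently transfected with NaP2b cDNA using Lipofectamine and grown near confluence. Compounds were tested at twelve concentrations from 0.1 nM to 30 uM in duplicate, and 33P-phosphate uptake was counted by scintillation after lysis. Results are expressed as pIC50.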
# [2] = Determination of compound Cmax and AUC after oral gavage (plasma LC-MS/MS); format: in vivo, Sprague-Dawley rats; conditions: Sprague-Dawley, rat, plasma, po, Structure (I) examples
# Outline: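 Sprague-Dawley rats dosed by oral gavage at nominal 2.5 or 10 mg/kg; blood drawn at 0.5, 1, 2 and 4 h into K2EDTA. Plasma protein-precipitated with acetonitrile plus internal standard and analysed by LC-MS/MS against a plasma standard curve to derive Cmax and AUC.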
# [3] = Table 15, actual oral dose 15-40 mg/kg, plasma 0.5-4 h
# [4] = Table 15, actual oral dose 3-15 mg/kg, plasma 0.5-4 h
IC50 [1],"AUC [2, 3] [ng·h/mL]","Cmax ([2]; Table 15, plasma 0.5-4 h) [ng/mL]","AUC [2, 4] [ng·h/mL]","Cmax [2, 4] [ng/mL]",SMILES
1000 to 7940 nM,< 10,< 10,–,–,"CCN(CC)c1ccc(NC(=O)c2cccc(CCCOCCOCCOCCOCCNS(=O)(=O)c3ccc(C(=O)N(CCOC)CCOCCOCCOCCOCCOCCOCCOC)cc3)c2)c(-c2cc(C(=O)NCc3cccc(C(F)(F)F)c3)ccn2)c1 [Example 272, 2-(2-(3-(1-(4-(2,5,8,11,14,17,20-heptaoxadocosan-22-yl(2-methoxyethyl)carbamoyl)phenylsulfonamido)-3,6,9,12-tetraoxapentadecan-15-yl)benzamido)-5-(diethylamino)phenyl)-N-(3-(trifluoromethyl)benzyl)isonicotinamide]"
1000 to 7940 nM,–,–,< 10,< 10,"CCN(CC)c1ccc(NC(=O)c2cccc(CCCOCCOCCOCCOCCC(=O)O)c2)c(-c2cc(C(=O)NCc3cccc(C(F)(F)F)c3)ccn2)c1 [Example 251, 16-(3-(4-(diethylamino)-2-(4-(3-(trifluoromethyl)benzylcarbamoyl)pyridin-2-yl)phenylcarbamoyl)phenyl)-4,7,10,13-tetraoxahexadecan-1-oic acid]"
1000 to 7940 nM,–,–,> 50,< 10,"CCN(CC)c1ccc(NC(=O)c2cccc(C(=O)N(C)CCN(CCOC)CCOCCOCCOCCOCCOCCOCCOC)c2)c(-c2cc(C(=O)NCc3cccc(C(F)(F)F)c3)ccn2)c1 [Example 335, N^1-(4-(Diethylamino)-2-(4-(3-(trifluoromethyl)benzylcarbamoyl)pyridin-2-yl)phenyl)-N^3-(23-(2-methoxyethyl)-2,5,8,11,14,17,20-heptaoxa-23-azapentacosan-25-yl)-N^3-methylisophthalamide, trifluoroacetate]"
1000 to 7940 nM,–,–,< 10,< 10,"CCN(CC)c1ccc(NC(=O)c2cccc(CSCCOCCOCCOCCOCCOCCOCCOCCOCCC(=O)O)c2)c(-c2cc(C(=O)N[C@H]3CCCc4ccccc43)ccn2)c1 [Example 161, (S)-1-(3-(4-(diethylamino)-2-(4-(1,2,3,4-tetrahydronaphthalen-1-ylcarbamoyl)pyridin-2-yl)phenylcarbamoyl)phenyl)-5,8,11,14,17,20,23,26-octaoxa-2-thianonacosan-29-oic acid]"
1000 to 7940 nM,< 50,> 50,< 10,< 10,"CCN(CC)c1ccc(NC(=O)c2cccc(CSCCOCCOCCOCCOCCOCCOCCOCCOCCC(=O)O)c2)c(-c2cc(C(=O)NCc3cccc(C(F)(F)F)c3)ccn2)c1 [Example 166, 1-(3-(4-(diethylamino)-2-(4-(3-(trifluoromethyl)benzylcarbamoyl)pyridin-2-yl)phenylcarbamoyl)phenyl)-5,8,11,14,17,20,23,26-octaoxa-2-thianonacosan-29-oic acid]"
1000 to 7940 nM,< 30,< 30,–,–,"CCN(CC)c1ccc(NC(=O)c2cccc(CCCOCCOCCOCCOCCOCCOCCOCCOCCOCCC(=O)O)c2)c(-c2cc(C(=O)NCc3cccc(C(F)(F)F)c3)ccn2)c1 [Example 298, 31-(3-(4-(diethylamino)-2-(4-(3-(trifluoromethyl)benzylcarbamoyl)pyridin-2-yl)phenylcarbamoyl)phenyl)-4,7,10,13,16,19,22,25,28-nonaoxahentriacontan-1-oic acid]"
10000 to 31600 nM and < 1000 nM,–,–,< 30,< 10,"O=C(O)c1cccc(SCc2cccc(C(=O)Nc3ccc(N4CCCCC4)cc3-c3cc(C(=O)NCc4cccc(C(F)(F)F)c4)ccn3)c2)c1 [Example 8.1, 3-(3-(4-(piperidin-1-yl)-2-(4-(3-(trifluoromethyl)benzylcarbamoyl)pyridin-2-yl)phenylcarbamoyl)benzylthio)benzoic acid]"
< 1000 nM,–,–,< 30,< 30,"O=C(O)CCOCCOCCOCCNC(=O)c1cccc2c1ccn2Cc1cccc(C(=O)Nc2ccc(N3CCCCC3)cc2-c2cc(C(=O)N[C@H]3CCCc4ccccc43)ccn2)c1 [Example 181, (S)-1-oxo-1-(1-(3-(4-(piperidin-1-yl)-2-(4-(1,2,3,4-tetrahydronaphthalen-1-ylcarbamoyl)pyridin-2-yl)phenylcarbamoyl)benzyl)-1H-indol-4-yl)-5,8,11-trioxa-2-azatetradecan-14-oic acid]"
1000 to 7940 nM,< 30,< 10,–,–,"CCN(CC)c1ccc(NC(=O)c2cccc(CCCOCCOCCOCCOCCOCCC(=O)O)c2)c(-c2cc(C(=O)NCc3cccc(C(F)(F)F)c3)ccn2)c1 [Example 300, 19-(3-(4-(diethylamino)-2-(4-(3-(trifluoromethyl)benzylcarbamoyl)pyridin-2-yl)phenylcarbamoyl)phenyl)-4,7,10,13,16-pentaoxanonadecan-1-oic acid]"
< 1000 nM,–,–,> 50,< 50,"CCN(CC)c1ccc(NC(=O)c2cccc(CCCOCCOCCOCCOCCOCCOCCOCCOCCOC)c2)c(-c2cc(C(=O)N[C@H]3CCCc4ccccc43)ccn2)c1 [Example 261, (S)-2-(2-(3-(2,5,8,11,14,17,20,23,26-nonaoxanonacosan-29-yl)benzamido)-5-(diethylamino)phenyl)-N-(1,2,3,4-tetrahydronaphthalen-1-yl)isonicotinamide]"
1000 to 7940 nM,–,–,< 30,< 30,"CCCN(CCC)c1ccc(NC(=O)c2cccc(COCCOCCOCCOCCOCCOCCOCCOCCOC)c2)c(-c2cc(C(=O)NCc3cccc(C(F)(F)F)c3)ccn2)c1 [Example 200, 2-(2-(3-(2,5,8,11,14,17,20,23,26-nonaoxaheptacosyl)benzamido)-5-(dipropylamino)phenyl)-N-(3-(trifluoromethyl)benzyl)isonicotinamide]"
1000 to 7940 nM,< 30,< 30,–,–,"CCN(CC)c1ccc(NC(=O)c2cccc(CCCOCCOCCOCCOCCOCCOCCC(=O)O)c2)c(-c2cc(C(=O)NCc3cccc(C(F)(F)F)c3)ccn2)c1 [Example 299, 22-(3-(4-(diethylamino)-2-(4-(3-(trifluoromethyl)benzylcarbamoyl)pyridin-2-yl)phenylcarbamoyl)phenyl)-4,7,10,13,16,19-hexaoxadocosan-1-oic acid]"
1000 to 7940 nM,–,–,< 10,< 10,"CCN(CC)c1ccc(NC(=O)c2cccc(CCCOCCOCCOCCOCCOCCOCCOCCOCCOC)c2)c(-c2cc(C(=O)NCc3cccc(C(F)(F)F)c3)ccn2)c1 [Example 269, 2-(2-(3-(2,5,8,11,14,17,20,23,26-nonaoxanonacosan-29-yl)benzamido)-5-(diethylamino)phenyl)-N-(3-(trifluoromethyl)benzyl)isonicotinamide]"
1000 to 7940 nM,–,–,< 10,< 10,CN(CCOCCOCCOCCC(=O)O)C(=O)Cc1cccc(SCc2cccc(C(=O)Nc3ccc(N4CCCCC4)cc3-c3cc(C(=O)NCc4cccc(C(F)(F)F)c4)ccn3)c2)c1 [Example 138]
1000 to 7940 nM,–,–,–,< 10,"CN(CCN1CCOCC1)C(=O)c1cccc(C(=O)Nc2ccc(N3CCCCC3)cc2-c2cc(C(=O)NCc3cccc(C(F)(F)F)c3)ccn2)c1 [Example 80, N1-Methyl-N1-(2-morpholinoethyl)-N3-(4-(piperidin-1-yl)-2-(4-((3-(trifluoromethyl)benzyl)carbamoyl)pyridin-2-yl)phenyl)isophthalamide]"
< 1000 nM,–,–,< 30,< 30,"O=C(O)CCOCCOCCOCCOCCCc1cccc(C(=O)Nc2ccc(N3CCCCC3)cc2-c2cc(C(=O)N[C@H]3CCCc4ccccc43)ccn2)c1 [Example 252, 3-(2-(2-(2-(3-(3-((2-(4-(((S)-1,2,3,4-tetrahydronaphthalen-1-yl)carbamoyl)pyridin-2-yl)-4-(piperidin-1-yl)phenyl)carbamoyl)phenyl)propoxy)ethoxy)ethoxy)ethoxy)propanoic acid]"
< 1000 nM,–,–,< 30,< 30,"CCN(CC)c1ccc(NC(=O)c2cccc(CSCCOCCOCCOCCOCCOCCOCCOCCOC)c2)c(-c2cc(C(=O)NCc3cccc(C(F)(F)F)c3)ccn2)c1 [Example 265, 2-(2-(3-(2,5,8,11,14,17,20,23-octaoxa-26-thiaheptacosan-27-yl)benzamido)-5-(diethylamino)phenyl)-N-(3-(trifluoromethyl)benzyl)isonicotinamide]"
1000 to 7940 nM,–,–,< 30,< 30,O=C(NCc1cccc(C(F)(F)F)c1)c1ccnc(-c2cc(N3CCCCC3)ccc2NC(=O)c2cccc(CSc3ccc(C(=O)O)c(Br)c3)c2)c1 [Example 8.21]
